Experimental findings from patent US11505558B1, “Antiviral heterocyclic compounds” (Enanta Pharmaceuticals, Inc., priority 2019, dated 2022) are described below.

The structures appear in SMILES notation. Bounds are passed on as bounds.

In the test the test system is genotype A, "Long" strain RSV. As to the kind of experiment: RSV-A assay (CPE, ATPlite readout in Hep-2 cells). To be noted: human respiratory syncytial virus, HEp-2, Hep-2 cells, genotype A "Long" strain RSV, MOI 0.1; read-out: Human RSV-A (“Long” strain) EC50. It counts as cell-based. The source says:
Hep-2 cells, (originally derived from tumors grown in irradiated-cortisonised weanling rats that had been injected with epidermoid carcinoma tissue from a person's larynx, but later found to be indistinguishable from HeLa cells by PCR DNA analysis), were used for the culturing of genotype A, “Long” strain RSV. Flasks were inoculated with RSV and viral stocks were collected once cytopathic effect (CPE) was greater than […]. Viral stocks in […] sucrose media were snap frozen using liquid nitrogen to increase viral stability. Viral stock titers were quantified by tissue culture infectious dose 50% (TCID50) using 8,000 cells per well and 3-fold viral dilutions across a 96-well plate, cultured for 4 days. Viral stock titers were also quantified by a plaque forming unit assay, as described elsewhere.
Following extensive parameter testing, the final assay is run as follows: Hep-2 cells are seeded into the inner 60 wells of a 96-well plate at 8,000 cells per well in a volume of 50 μL using Growth Media (DMEM without phenol red, 1% L-Glut, 1% Penn/Strep, 1% nonessential amino acids, 10% heat-inactivated FBS). 2-fold serial dilutions of control and test compounds are added to the wells in duplicate in a total volume of 25 μL. Viral stock is then added to the wells at a multiplicity of infection (MOI) of 0.1 in a volume of 25 μL, bringing the total volume of each well to 100 μL. The MOI is calculated using the PFU/mL, or TCID50 if unavailable. Each 96-well plate has a control column of 6 wells with cells and virus but no compound (negative control, max CPE), a column with cells but no compound or virus (positive control, minimum CPE), and a column with no cells or virus or compound (background plate/reagent control). The control wells with cells but no virus are given an additional 25 μL of growth media containing an equal quantity of sucrose as those wells receiving the viral stock in order to keep consistent in media and volume conditions. The outer wells of the plate are filled with 125 μL of moat media (DMEM, 1% Penn/Strep) to act as a thermal and evaporative moat around the test wells. Following a 5-day incubation period, the plates are read using ATPlite (50 uL added per well), which quantifies the amount of ATP (a measure of cell health) present in each well. Assay plates are read using the Envision luminometer. […] EC50 ranges are as follows: A<0.2 μM; B>0.2 μM.
(In general: ATP-based viability assays read luminescence as a measure of living cells.)
In general, EC50 refers to the concentration needed to bring the measured effect to its halfway point. With `COc1cc(C(=O)NC[C@](O)(c2cc3c(c(-c4ccc(F)cc4)n2)OC[C@]3(C)COC(=O)NC2CC2)C(F)(F)F)ccc1OCCO` (single isomer, unassigned) [Example 7], the EC50 was more than 200 nM.
As for `COc1cc(C(=O)NC[C@](O)(c2cc3c(c(-c4ccc(F)cc4)n2)OC[C@]3(C)CNC2CC2)C(F)(F)F)ccc1OCCO` [Example 3], the EC50 is less than 200 nM.
To `COc1cc(C(=O)NCC(O)(c2cc3c(c(-c4ccc(F)cc4)n2)OC[C@]3(C)CN[C@@H](C)C2CC2)C(F)(F)F)ccc1OCCO` (stereo partly drawn) [Example 4] belongs less than 200 nM; to `COc1cc(C(=O)NC[C@](O)(c2cc3c(c(-c4ccc(F)cc4)n2)OC[C@]3(C)CNc2ccccc2)C(F)(F)F)ccc1OCCO` [Example 5], more than 200 nM; to `COc1cc(C(=O)NC[C@](O)(c2cc3c(c(-c4ccc(F)cc4)n2)OC[C@]3(C)COC(=O)Nc2ccccc2)C(F)(F)F)ccc1OCCO` [Example 6], more than 200 nM.
On to `COc1cc(C(=O)NC[C@](O)(c2cc3c(c(-c4ccc(F)cc4)n2)OC[C@]3(C)CNC(=O)c2ccccc2)C(F)(F)F)ccc1OCCO` [Example 8], for which the EC50 is more than 200 nM.
The same measure for `COc1cc(C(=O)NC[C@](O)(c2cc3c(c(-c4ccc(F)cc4)n2)OC[C@]3(C)CNC(=O)C2CC2)C(F)(F)F)ccc1OCCO` [Example 9]: less than 200 nM; for `COc1cc(C(=O)NC[C@](O)(c2cc3c(c(-c4ccc(F)cc4)n2)OC[C@]3(C)C(=O)NC2CC2)C(F)(F)F)ccc1OCCO` [Example 10]: less than 200 nM; for `COc1cc(C(=O)NC[C@](O)(c2cc3c(c(-c4ccc(F)cc4)n2)OC[C@]3(C)C(N)=O)C(F)(F)F)ccc1OCCO` [Example 11]: less than 200 nM.
The same measure for `COc1cc(C(=O)NCC(O)(c2cc3c(c(-c4ccc(F)cc4)n2)OC[C@]3(C)C(=O)NS(=O)(=O)C2CC2)C(F)(F)F)ccc1OCCO` (stereo partly drawn) [Example 12]: more than 200 nM; for `COc1cc(C(=O)NCC(O)(c2cc3c(c(-c4ccc(F)cc4)n2)OC[C@]3(C)C(=O)O)C(F)(F)F)ccc1OCCO` (stereo partly drawn) [Example 13]: more than 200 nM.
To `COc1cc(C(=O)NC[C@](O)(c2cc3c(c(-c4ccc(F)cc4)n2)OC[C@]3(C)CNC2CC2)C(F)(F)F)ccc1OC1CC1` [Example 17] belongs less than 200 nM.
For the compound `COc1cc(C(=O)NC[C@](O)(c2cc3c(c(-c4ccc(F)cc4)n2)OC[C@]3(C)CNCC2CC2)C(F)(F)F)ccc1OC1CC1` [Example 18], the EC50 was less than 200 nM.
Consider `COc1cc(C(=O)NC[C@](O)(c2cc3c(c(-c4ccc(F)cc4)n2)OC[C@]3(C)CN[C@@H](C)C2CC2)C(F)(F)F)ccc1OC1CC1` [Example 19], for which the EC50 is less than 200 nM.
The same measure for `COc1cc(C(=O)NC[C@](O)(c2cc3c(c(-c4ccc(F)cc4)n2)OC[C@]3(C)CNC2CC2)C(F)(F)F)cc2cccnc12` [Example 23]: less than 200 nM; for `COc1cc(C(=O)NCC(O)(c2cc3c(c(-c4ccc(F)cc4)n2)OC[C@]3(C)CN[C@@H](C)C2CC2)C(F)(F)F)cc2cccnc12` (stereo partly drawn) [Example 24]: less than 200 nM.
In the case of `COc1cc(C(=O)NCC(O)(c2cc3c(c(-c4ccc(F)cc4)n2)OC[C@]3(C)CNCC2CC2)C(F)(F)F)cc2cccnc12` (stereo partly drawn) [Example 25], the EC50 is less than 200 nM.
To `COc1cc(C(=O)NC[C@](O)(c2cc3c(c(-c4ccc(F)cc4)n2)OC[C@]3(C)C(N)=O)C(F)(F)F)cc2cccnc12` [Example 28] belongs less than 200 nM.
Turning to `C[C@]1(CNCC2CC2)COc2c1cc([C@@](O)(CNC(=O)c1ccc(OC(F)F)c(OCC3CC3)c1)C(F)(F)F)nc2-c1ccc(F)cc1` [Example 33], the EC50 was more than 200 nM.
The same measure for `C[C@]1(CNCC2CC2)COc2c1cc([C@@](O)(CNC(=O)c1ccc3c(c1)OCCN3)C(F)(F)F)nc2-c1ccc(F)cc1` [Example 38]: more than 200 nM.
Consider `C[C@]1(CNCC2CC2)COc2c1cc([C@@](O)(CNC(=O)c1ccc3[nH]c(=O)[nH]c3c1)C(F)(F)F)nc2-c1ccc(F)cc1` [Example 40], for which the EC50 is more than 200 nM.
